In patent publication US11407736B2 (priority 2019, dated 2022):
pIC50: −log10 of the molar value. Like-named read-outs stand apart in the source and are kept apart here.

Tests used:
RIPK1 = RIPK1 (Homo sapiens (Human), UniProt Q13546); test: RIPK1 ADP-Glo biochemical kinase assay; details: read-out: RIPK1 ADP-Glo Kinase (IC50)
Description: The final reaction volume was 5.0ul.
Adding 5 μl of ADP-Glo™ terminated the reaction.

L929 cells = test: L929 cell necroptosis assay (TNFa + zVAD, CellTiter-Glo); assay type: cell-based, murine; details: Mus musculus, TNFa + zVAD, read-out: L929-CTG-recovery, L929, TNFa + zVAD (IC50)
Summary of the method: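 Murine L929 cells, plated 18 h beforehand at 10K cells/well in RPMI 1640 with 10% FBS, were switched to medium containing 40 uM zVAD-fmk and given compound from 4-fold serial dilutions. Viability after 18 h of TNFa stimulation at 37° C was read by CellTiter-Glo luminescence.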

U937 cells = test: U937 cell necroptosis assay (TNFa + zVAD, CellTiter-Glo); assay type: cell-based, human; details: Homo sapiens, U-937, U937 cells, TNFa + zVAD; read-out: U937 Zvad TNF CTG Recovery, U937, TNFa + zVAD (IC50)
Summary of the method: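 Human U937 and murine L929 cells in RPMI 1640/10% FBS were pre-incubated 1 h at 37 °C with serially diluted compound plus zVAD-fmk (U937 plated with 60 uM, L929 medium with 40 uM), then stimulated with 2 ng/mL TNFa (final). Viability read by CellTiter-Glo luminescence after 18 h.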

Chain of RIPK1 (Q13546 whole entry, species assumed): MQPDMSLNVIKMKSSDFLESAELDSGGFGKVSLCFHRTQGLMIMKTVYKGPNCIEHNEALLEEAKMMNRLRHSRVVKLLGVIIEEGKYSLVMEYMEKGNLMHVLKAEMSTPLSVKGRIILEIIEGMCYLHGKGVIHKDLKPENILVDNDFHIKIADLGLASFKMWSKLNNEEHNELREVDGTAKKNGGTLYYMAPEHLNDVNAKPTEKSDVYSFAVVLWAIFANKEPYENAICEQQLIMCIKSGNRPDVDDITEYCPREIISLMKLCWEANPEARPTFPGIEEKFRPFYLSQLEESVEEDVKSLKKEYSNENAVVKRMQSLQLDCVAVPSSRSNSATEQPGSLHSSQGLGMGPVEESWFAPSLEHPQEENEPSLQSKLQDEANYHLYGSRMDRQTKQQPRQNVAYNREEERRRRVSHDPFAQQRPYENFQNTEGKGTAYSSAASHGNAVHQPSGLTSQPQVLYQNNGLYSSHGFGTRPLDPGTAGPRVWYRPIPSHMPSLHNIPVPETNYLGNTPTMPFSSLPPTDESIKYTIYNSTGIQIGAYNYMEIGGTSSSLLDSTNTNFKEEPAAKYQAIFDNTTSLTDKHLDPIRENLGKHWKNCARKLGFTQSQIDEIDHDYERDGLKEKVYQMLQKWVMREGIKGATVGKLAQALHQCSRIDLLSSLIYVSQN

| SMILES | pIC50 (RIPK1) | pIC50 (L929 cells; L929, L929 cells) | pIC50 (U937 cells) | pIC50 (L929 cells; L929 cells) |
| --- | --- | --- | --- | --- |
| CN1C(=O)[C@@H](NC(=O)c2ncn(Cc3ccccc3)n2)COc2ccc(C#CCCOc3cccc4ncccc34)cc21 [Compound I-44, (S)-1-benzyl-N-(5-methyl-4-oxo-7-(4-(quinolin-5-yloxy)but-1-yn-1-yl)-2,3,4,5-tetrahydrobenzo[b][1,4]oxazepin-3-yl)-1H-1,2,4-triazole-3-carboxamide] | 7.47 | 9.70 | 8.96 |  |
| CN1C(=O)[C@@H](NC(=O)c2n[nH]c(Cc3ccccc3)n2)COc2ccc(C#CCCOc3cccc4ncccc34)cc21 [Compound I-45, (S)-5-benzyl-N-(5-methyl-4-oxo-7-(4-(quinolin-5-yloxy)but-1-yn-1-yl)-2,3,4,5-tetrahydrobenzo[b][1,4]oxazepin-3-yl)-1H-1,2,4-triazole-3-carboxamide] | 7.08 | 9.52 | 8.85 |  |
| CN1C(=O)[C@@H](NC(=O)c2ncn(Cc3ccccc3)n2)COc2ccc(CN3CCn4c(nnc4C(F)(F)F)C3)cc21 [Compound I-46, (S)-1-benzyl-N-(5-methyl-4-oxo-7-((3-(trifluoromethyl)-5,6-dihydro-[1,2,4]triazolo[4,3-a]pyrazin-7(8H)-yl)methyl)-2,3,4,5-tetrahydrobenzo[b][1,4]oxazepin-3-yl)-1H-1,2,4-triazole-3-carboxamide] | 7.36 | 9.40 | 8.92 |  |
| CN1C(=O)[C@@H](NC(=O)c2n[nH]c(Cc3ccccc3)n2)COc2ccc(CN3CCn4c(nnc4C(F)(F)F)C3)cc21 [Compound I-47, (S)-5-benzyl-N-(5-methyl-4-oxo-7-((3-(trifluoromethyl)-5,6-dihydro-[1,2,4]triazolo[4,3-a]pyrazin-7(8H)-yl)methyl)-2,3,4,5-tetrahydrobenzo[b][1,4]oxazepin-3-yl)-1H-1,2,4-triazole-3-carboxamide] | 7.17 | 8.82 | 8.34 |  |
| CN1C(=O)[C@@H](NC(=O)c2ncn(Cc3ccccc3)n2)COc2ccc(C#CC(C)(C)C)cc21 [Compound I-48, (S)-1-benzyl-N-(7-(3,3-dimethylbut-1-yn-1-yl)-5-methyl-4-oxo-2,3,4,5-tetrahydrobenzo[b][1,4]oxazepin-3-yl)-1H-1,2,4-triazole-3-carboxamide] | 7.20 |  | 8.80 | 9.30 |
| CN1C(=O)[C@@H](NC(=O)c2n[nH]c(Cc3ccccc3)n2)COc2ccc(C#CC(C)(C)C)cc21 [Compound I-49, (S)-5-benzyl-N-(7-(3,3-dimethylbut-1-yn-1-yl)-5-methyl-4-oxo-2,3,4,5-tetrahydrobenzo[b][1,4]oxazepin-3-yl)-1H-1,2,4-triazole-3-carboxamide] | 7.22 | 8.92 | 8.30 |  |
| CN1C(=O)[C@@H](NC(=O)c2ncn(Cc3ccccc3)n2)COc2ccc(C#CC3(O)CCC3)cc21 [Compound I-50, (S)-1-benzyl-N-(7-((1-hydroxycyclobutyl)ethynyl)-5-methyl-4-oxo-2,3,4,5-tetrahydrobenzo[b][1,4]oxazepin-3-yl)-1H-1,2,4-triazole-3-carboxamide] | 7.63 |  | 8.96 | 9.52 |
| CN1C(=O)[C@@H](NC(=O)c2ncn(Cc3ccccc3)n2)COc2ccc(C#CC3(O)CCCC3)cc21 [Compound I-52, (S)-1-benzyl-N-(7-((1-hydroxycyclopentyl)ethynyl)-5-methyl-4-oxo-2,3,4,5-tetrahydrobenzo[b][1,4]oxazepin-3-yl)-1H-1,2,4-triazole-3-carboxamide] | 7.60 | 9.52 | 9.05 |  |
| CN1C(=O)[C@@H](NC(=O)c2n[nH]c(Cc3ccccc3)n2)COc2ccc(C#CC3(O)CCCC3)cc21 [Compound I-53, (S)-5-benzyl-N-(7-((1-hydroxycyclopentyl)ethynyl)-5-methyl-4-oxo-2,3,4,5-tetrahydrobenzo[b][1,4]oxazepin-3-yl)-1H-1,2,4-triazole-3-carboxamide] | 7.47 | 9.30 | 8.74 |  |
| CN1C(=O)[C@@H](NC(=O)c2ncn(Cc3ccccc3)n2)COc2ccc(C#CC3(O)CCOCC3)cc21 [Compound I-54, (S)-1-benzyl-N-(7-((4-hydroxytetrahydro-2H-pyran-4-yl)ethynyl)-5-methyl-4-oxo-2,3,4,5-tetrahydrobenzo[b][1,4]oxazepin-3-yl)-1H-1,2,4-triazole-3-carboxamide] | 7.57 | 9.52 | 9.05 |  |
| CN1C(=O)[C@@H](NC(=O)c2n[nH]c(Cc3ccccc3)n2)COc2ccc(C#CC3(O)CCOCC3)cc21 [Compound I-55, (S)-5-benzyl-N-(7-((4-hydroxytetrahydro-2H-pyran-4-yl)ethynyl)-5-methyl-4-oxo-2,3,4,5-tetrahydrobenzo[b][1,4]oxazepin-3-yl)-1H-1,2,4-triazole-3-carboxamide] | 7.47 | 9.22 | 8.70 |  |
| CN1C(=O)[C@@H](NC(=O)c2n[nH]c(Cc3ccccc3)n2)COc2ccc(C#CC3(O)COC3)cc21 [Compound I-57, (S)-5-benzyl-N-(7-((3-hydroxyoxetan-3-yl)ethynyl)-5-methyl-4-oxo-2,3,4,5-tetrahydrobenzo[b][1,4]oxazepin-3-yl)-1H-1,2,4-triazole-3-carboxamide] | 7.67 | 9.05 | 8.52 |  |
| CN1C(=O)[C@@H](NC(=O)c2ncn(Cc3ccccc3)n2)COc2ccc(C#CC3(O)COC3)cc21 [Compound I-58, (S)-1-benzyl-N-(7-((3-hydroxyoxetan-3-yl)ethynyl)-5-methyl-4-oxo-2,3,4,5-tetrahydrobenzo[b][1,4]oxazepin-3-yl)-1H-1,2,4-triazole-3-carboxamide] | 7.96 | 9.70 | 9.10 |  |
| C=C(C)C#Cc1ccc2c(c1)N(C)C(=O)[C@@H](NC(=O)c1n[nH]c(Cc3ccccc3)n1)CO2 [Compound I-59, (S)-5-benzyl-N-(5-methyl-7-(3-methylbut-3-en-1-yn-1-yl)-4-oxo-2,3,4,5-tetrahydrobenzo[b][1,4]oxazepin-3-yl)-1H-1,2,4-triazole-3-carboxamide] | 7.24 | 9.15 | 8.72 |  |
| CC(C)CCc1ccc2c(c1)N(C)C(=O)[C@@H](NC(=O)c1n[nH]c(Cc3ccccc3)n1)CO2 [Compound I-60, (S)-5-benzyl-N-(7-isopentyl-5-methyl-4-oxo-2,3,4,5-tetrahydrobenzo[b][1,4]oxazepin-3-yl)-1H-1,2,4-triazole-3-carboxamide] | 7.19 | 8.62 | 8.32 |  |
| COC(C)(C)C#Cc1ccc2c(c1)N(C)C(=O)[C@@H](NC(=O)c1n[nH]c(Cc3ccccc3)n1)CO2 [Compound I-61, (S)-5-benzyl-N-(7-(3-methoxy-3-methylbut-1-yn-1-yl)-5-methyl-4-oxo-2,3,4,5-tetrahydrobenzo[b][1,4]oxazepin-3-yl)-1H-1,2,4-triazole-3-carboxamide] | 7.18 | 8.89 | 8.47 |  |
| CN1C(=O)[C@@H](NC(=O)c2ncn(Cc3ccccc3)n2)COc2cc(C#CC(C)(C)O)ccc21 [Compound I-62, (S)-1-benzyl-N-(8-(3-hydroxy-3-methylbut-1-yn-1-yl)-5-methyl-4-oxo-2,3,4,5-tetrahydrobenzo[b][1,4]oxazepin-3-yl)-1H-1,2,4-triazole-3-carboxamide] | 7.45 | 9.15 | 8.70 |  |
| CN1C(=O)[C@@H](NC(=O)c2n[nH]c(Cc3ccccc3)n2)COc2cc(C#CC(C)(C)O)ccc21 [Compound I-63, (S)-5-benzyl-N-(8-(3-hydroxy-3-methylbut-1-yn-1-yl)-5-methyl-4-oxo-2,3,4,5-tetrahydrobenzo[b][1,4]oxazepin-3-yl)-1H-1,2,4-triazole-3-carboxamide] | 7.52 | 9.52 | 9.00 |  |
| CN1C(=O)[C@@H](NC(=O)c2cc(Oc3ccccc3)ccn2)COc2cc(C#CC(C)(C)O)ccc21 [Compound I-64, (S)—N-(8-(3-hydroxy-3-methylbut-1-yn-1-yl)-5-methyl-4-oxo-2,3,4,5-tetrahydrobenzo[b][1,4]oxazepin-3-yl)-4-phenoxypicolinamide] | 7.72 | 10.00 | 9.30 |  |
| CN1C(=O)[C@@H](NC(=O)c2n[nH]c(Cc3c(Cl)cccc3Cl)n2)COc2ccc(C#CC(C)(C)O)cc21 [Compound I-65, (S)-5-(2,6-dichlorobenzyl)-N-(7-(3-hydroxy-3-methylbut-1-yn-1-yl)-5-methyl-4-oxo-2,3,4,5-tetrahydrobenzo[b][1,4]oxazepin-3-yl)-1H-1,2,4-triazole-3-carboxamide] | 7.19 | 7.38 | 7.38 |  |
| CN1C(=O)[C@@H](NC(=O)c2n[nH]c(Cc3ccccc3)n2)COc2cc(CN3CCn4nc(C(F)(F)F)nc4C3)ccc21 [Compound I-66, (S)-5-benzyl-N-(5-methyl-4-oxo-8-((2-(trifluoromethyl)-5,6-dihydro-[1,2,4]triazolo[1,5-a]pyrazin-7(8H)-yl)methyl)-2,3,4,5-tetrahydrobenzo[b][1,4]oxazepin-3-yl)-1H-1,2,4-triazole-3-carboxamide] | 7.10 | 7.02 | 6.72 |  |
